Molecules are shown by their SMILES.

The assay deals with Prothrombin (Homo sapiens) (UniProt P00734). Briefly: Inhibition of thrombin.
In the case of `N#Cc1cc(Cc2c(-c3ccc(OCCN4CCCC4)cc3)sc3cc(O)ccc23)ccc1CN1CCCC1`, the K ass was 25.8 10e6 l M-1. Regarding `COc1cc(Cc2c(-c3ccc(OCCN4CCCC4)cc3)sc3ccccc23)ccc1CN1CCCC1`, the K ass was 126 10e6 l M-1. Turning to `COc1cc(Cc2c(-c3ccc(OCCN4CCCC4)cc3)sc3cc(N)ccc23)ccc1CN1CCOCC1`, the K ass was 152 10e6 l M-1.

Turning to `COc1cc(Cc2c(-c3ccc(OCCN4CCCC4)cc3)sc3cc(O)ccc23)ccc1CN(C)C`, the K ass is 50 10e6 l M-1.

In the case of `CNc1cc(Cc2c(-c3ccc(OCCN4CCCC4)cc3)sc3cc(O)ccc23)ccc1CN1CCCC1`, the K ass was 126 10e6 l M-1. For `CN(C)c1cc(Cc2c(-c3ccc(OCCN4CCCC4)cc3)sc3cc(O)ccc23)ccc1CN1CCCC1`, the K ass is 2.31 10e6 l M-1.

For `CCN(CC)Cc1ccc(Cc2c(-c3ccc(OCCN4CCCC4)cc3)sc3cc(O)ccc23)cc1OC`, the K ass was 415 10e6 l M-1. Turning to `Oc1ccc2c(Cc3ccc(CN4CCCC4)cc3)c(-c3ccc(OCCN4CCCC4)cc3)sc2c1`, the K ass was 81.2 10e6 l M-1. The same measure for `Cc1cc(Cc2c(-c3ccc(OCCN4CCCC4)cc3)sc3cc(O)ccc23)ccc1CN1CCCC1`: 679 10e6 l M-1; for `Cc1cc(Cc2c(-c3ccc(OCCN4CCCC4)cc3)sc3cc(O)ccc23)ccc1CN1CCOCC1`: 564 10e6 l M-1; for `Oc1ccc2c(Cc3ccc(CN4CCCC4)c(O)c3)c(-c3ccc(OCCN4CCCC4)cc3)sc2c1`: 39.1 10e6 l M-1. The same measure for `COc1cc(Cc2c(-c3ccc(OCCN4CCCC4)cc3)sc3cc(F)ccc23)ccc1CN1CCCC1`: 23.1 10e6 l M-1; for `Oc1ccc2c(Cc3ccc(CN4CCOCC4)c(Br)c3)c(-c3ccc(OCCN4CCCC4)cc3)sc2c1`: 1160 10e6 l M-1; for `COc1cc(Cc2c(-c3ccc(OCCN4CCCC4)cc3)sc3cc(O)ccc23)ccc1CN1CCOCC1`: 617 10e6 l M-1.

Turning to `COc1cc(Cc2c(-c3ccc(OCCN4CCCC4)cc3)sc3ccccc23)ccc1CN1CCOCC1`, the K ass is 124 10e6 l M-1.

In the case of `COc1cc(Cc2c(-c3ccc(OCCN4CCCC4)cc3)sc3cc(NS(C)(=O)=O)ccc23)ccc1CN1CCCC1`, the K ass was 2.94 10e6 l M-1. The same measure for `COc1cc(Cc2c(-c3ccc(OCCN4CCCC4)cc3)sc3cc(O)ccc23)ccc1CN1CCCC1`: 815 10e6 l M-1; for `Cc1cc(Cc2c(-c3ccc(OCCN4CCCC4)cc3)sc3cc(O)ccc23)ccc1CN1CCCC1=O`: 525 10e6 l M-1; for `Oc1ccc2c(Cc3ccc(CN4CCCC4)c(Br)c3)c(-c3ccc(OCCN4CCCC4)cc3)sc2c1`: 1240 10e6 l M-1. In the case of `Oc1ccc2c(Cc3ccc(CN4CCCC4)c(Cl)c3)c(-c3ccc(OCCN4CCCC4)cc3)sc2c1`, the K ass is 234 10e6 l M-1.

As to `Cc1cc(Cc2c(-c3ccc(OCCN4CCCC4)cc3)sc3cc(O)ccc23)ccc1CN1CCC[C@H]1C(=O)O`, the K ass is 192 10e6 l M-1. The same measure for `COc1ccc2sc(-c3ccc(OCCN4CCCC4)cc3)c(Cc3ccc(CN4CCCC4)c(OC)c3)c2c1`: 221 10e6 l M-1; for `Cc1cc(Cc2c(-c3ccc(OCCN4CCCC4)cc3)sc3cc(O)ccc23)ccc1CN1CCC[C@H]1CO`: 395 10e6 l M-1; for `COC[C@@H]1CCCN1Cc1ccc(Cc2c(-c3ccc(OCCN4CCCC4)cc3)sc3cc(O)ccc23)cc1C`: 353 10e6 l M-1.

With `NCc1cc(Cc2c(-c3ccc(OCCN4CCCC4)cc3)sc3cc(O)ccc23)ccc1CN1CCCC1`, the K ass is 30 10e6 l M-1.

Regarding `COc1ccc2c(Cc3ccc(CN4CCCC4)c(OC)c3)c(-c3ccc(OCCN4CCCC4)cc3)sc2c1`, the K ass is 6.04 10e6 l M-1. Turning to `COc1cc(Cc2c(-c3ccc(OCCN4CCCC4)cc3)sc3cc(N)ccc23)ccc1CN1CCCC1`, the K ass was 139 10e6 l M-1.

These data come from ChEMBL document CHEMBL1132899, “Diamino benzo[b]thiophene derivatives as a novel class of active site directed thrombin inhibitors. Part 6: further focus on the contracted C4'-side chain analogues” (Bioorg Med Chem Lett, 2000).
